Patent publication US9179674B2, “Macrocyclic picolinamide compounds with fungicidal activity” (DOW AGROSCIENCES LLC, priority 2013, dated 2015)
Read-outs that look alike come from different tables or passages of the source.

What was measured:
[1] = test system: Puccinia triticina; test: Wheat Brown Rust fungicidal activity (PUCCRT); format: in vivo; conditions: Puccinia triticina; for pest or weed control at 100 ppm: rate 100 ppm; for pest or weed control at 121.5 g/ha: rate 121.5 g/H
How it was run: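 Yuma wheat seedlings at first-leaf stage sprayed to run-off (acetone solution in water with 110 ppm Triton X-100) or track-sprayed as EC with 0.1% Trycol 5941; inoculated with P. triticina spores before or after treatment. Overnight dark dew at 22° C., then greenhouse 24° C.; disease severity 0–100% gives percent control vs untreated.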

[2] = test system: Phakopsora pachyrhizi; test: Asian Soybean Rust fungicidal activity (PHAKPA); format: in vivo; conditions: 25 ppm
Description: Evaluation of Fungicidal Activity: Asian Soybean Rust (Phakopsora pachyrhizi; Bayer Code PHAKPA)
Technical grades of materials were dissolved in acetone, which were then mixed with nine volumes of water containing 0.011% Tween 20. The fungicide solutions were applied onto soybean seedlings using an automated booth sprayer to run-off. All sprayed plants were allowed to air dry prior to further handling.
Soybean plants (variety Williams 82) were grown in soil-less Metro mix, with one plant per pot. Two weeks old seedlings were used for testing. Plants were inoculated either 3 days prior to or 1 day after fungicide treatments. Plants were incubated for 24 h in a dark dew room at 22° C. and 100% RH then transferred to a growth room at 23° C. for disease to develop. Disease severity was assessed on the sprayed leaves.

[3] = test system: Mycosphaerella graminicola; Anamorph: Septoria tritici; test: Leaf Blotch of Wheat fungicidal activity (SEPTTR); format: in vivo; conditions: Zymoseptoria tritici; for pest or weed control at 100 ppm: rate 100 ppm; for pest or weed control at 121.5 g/ha: rate 121.5 g/H
How it was run: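 Acetone solutions diluted with nine volumes of water containing 110 ppm Triton X-100, sprayed to run-off on first-leaf wheat seedlings (Yuma), inoculated with S. tritici before or after treatment. Plants held in dew chambers, then in a 20 °C greenhouse. Disease severity (0–100%) scored when untreated plants fully symptomatic; % control relative to untreated.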

[4] = 24 h, 1 Day Protectant, read-out: Disease control PUCCRT 1DP
[5] = 72 h, 3 Day Curative, read-out: Disease control PUCCRT 3DC
[6] = 24 h, 1 Day Protectant, read-out: Disease control SEPTTR 1DP
[7] = 72 h, 3 Day Curative, read-out: Disease control SEPTTR 3DC

Row | Structure (SMILES) | pest or weed control at 100 ppm [1, 4] | pest or weed control at 121.5 g/ha [1, 4] | pest or weed control at 100 ppm [1, 5] | pest or weed control at 121.5 g/ha [1, 5] | Disease Control PHAKPA 1DP ([2]; 1 Day Protectant) | Disease Control PHAKPA 3DC ([2]; 3 Day Curative) | pest or weed control at 100 ppm [3, 6] | pest or weed control at 121.5 g/ha [3, 6] | pest or weed control at 100 ppm [3, 7] | pest or weed control at 121.5 g/ha [3, 7] | melting point
1 | COc1ccnc(C(=O)N[C@H]2COC[C@H](CCC(C)C)[C@@H](OCC(C)C)[C@H](C)OC2=O)c1OCOC(C)=O [Compound F106] | 80 to 100% | 80 to 100% | 80 to 100% | 80 to 100% | A (80-100) | A (80-100) | 80 to 100% | 80 to 100% | 80 to 100% | 80 to 100% | –
2 | COc1ccnc(C(=O)N[C@H]2COC[C@H](CC3CCCC3)[C@@H](OC(=O)C(C)C)[C@H](C)OC2=O)c1OC(C)=O [Compound F77] | 80 to 100% | 80 to 100% | 80 to 100% | 80 to 100% | – | – | 80 to 100% | 80 to 100% | 80 to 100% | 80 to 100% | 66 to 69 °C
3 | COc1ccnc(C(=O)N[C@H]2COC[C@H](Cc3ccc(C)cc3)[C@@H](OC(=O)C(C)C)[C@H](C)OC2=O)c1OCOC(C)=O [Compound F89] | 80 to 100% | – | 80 to 100% | – | – | – | 80 to 100% | – | 80 to 100% | – | 43 to 47 °C
4 | COc1ccnc(C(=O)N[C@H]2COC[C@H](Cc3ccc(F)cc3)[C@@H](OC(=O)C(C)C)[C@H](C)OC2=O)c1OC(C)=O [Compound F56] | 80 to 100% | – | 80 to 100% | – | – | – | 80 to 100% | – | 80 to 100% | – | 74 to 79 °C
5 | COc1ccnc(C(=O)N[C@H]2COC[C@H](CC3CCCC3)[C@@H](OCC(C)C)[C@H](C)OC2=O)c1O [Compound F46] | 80 to 100% | – | 80 to 100% | – | – | – | 80 to 100% | – | 80 to 100% | – | 132 to 134 °C
6 | COc1ccnc(C(=O)N[C@H]2COC[C@H](CCc3ccccc3)[C@@H](OCC(C)C)[C@H](C)OC2=O)c1OC(C)=O [Compound F50] | 80 to 100% | – | 80 to 100% | – | – | – | 80 to 100% | – | 80 to 100% | – | 61 to 65 °C
7 | COc1ccnc(C(=O)N[C@H]2COC[C@H](Cc3cccc4ccccc34)[C@@H](OCCCC(F)(F)F)[C@H](C)OC2=O)c1OCOC(C)=O [Compound F84] | 80 to 100% | – | 80 to 100% | – | – | – | 80 to 100% | – | – | – | 61 to 68 °C
8 | COc1ccnc(C(=O)N[C@H]2COC[C@H](Cc3ccc(Cl)cc3Cl)[C@@H](OC(=O)C(C)C)[C@H](C)OC2=O)c1OCOC(=O)C(C)C [Compound F119] | 80 to 100% | – | 80 to 100% | – | – | – | 80 to 100% | – | 80 to 100% | – | 57 to 60 °C
9 | COc1ccnc(C(=O)N[C@H]2COC[C@H](CCc3ccccc3)[C@@H](OC3CCCC3)[C@H](C)OC2=O)c1O [Compound F1] | 80 to 100% | – | 80 to 100% | – | – | – | 80 to 100% | – | 0 to 80% | – | 51 to 58 °C
10 | CCCCCO[C@@H]1[C@@H](Cc2ccc(C)cc2)COC[C@H](NC(=O)c2nccc(OC)c2OCOC(C)=O)C(=O)O[C@H]1C [Compound F88] | 80 to 100% | – | 80 to 100% | – | – | – | 80 to 100% | – | 80 to 100% | – | 39 to 43 °C
11 | COc1ccnc(C(=O)N[C@H]2COC[C@H](Cc3ccc(F)cc3)[C@@H](OC(=O)C3CC3)[C@H](C)OC2=O)c1OCOC(C)=O [Compound F90] | 80 to 100% | – | 80 to 100% | – | – | – | 80 to 100% | – | 80 to 100% | – | 59 to 64 °C
12 | CCCCCO[C@@H]1[C@@H](CCc2ccccc2)COC[C@H](NC(=O)c2nccc(OC)c2O)C(=O)O[C@H]1C [Compound F3] | 80 to 100% | – | 80 to 100% | – | – | – | 80 to 100% | – | 80 to 100% | – | 96 to 98 °C
13 | COc1ccnc(C(=O)N[C@H]2COC[C@H](Cc3cccc4ccccc34)[C@@H](Oc3ccc(C)cc3)[C@H](C)OC2=O)c1OCOC(C)=O [Compound F85] | 80 to 100% | – | 0 to 80% | – | – | – | 80 to 100% | – | 0 to 80% | – | 83 to 88 °C
14 | COc1ccnc(C(=O)N[C@H]2COC[C@H](Cc3cccc4ccccc34)[C@@H](OC(=O)C(C)C)[C@H](C)OC2=O)c1O [Compound F5, (3S,6S,7R,8S)-3-(3-hydroxy-4-methoxypicolin-amido)-6-methyl-8-(naphthalen-1-ylmethyl)-4-oxo-1,5-dioxonan-7-yl isobutyrate] | 0 to 80% | – | 0 to 80% | – | – | – | 80 to 100% | – | 0 to 80% | – | 139 to 142 °C
15 | CCCCCO[C@@H]1[C@@H](Cc2ccc(Cl)cc2Cl)COC[C@H](NC(=O)c2nccc(OC)c2OC(C)=O)C(=O)O[C@H]1C [Compound F75] | 80 to 100% | 80 to 100% | 80 to 100% | 0 to 80% | – | – | 80 to 100% | 80 to 100% | 80 to 100% | 80 to 100% | 55 to 59 °C
16 | CCCCCO[C@@H]1[C@@H](Cc2cccc3ccccc23)COC[C@H](NC(=O)c2nccc(OC)c2O)C(=O)O[C@H]1C [Compound F7] | 80 to 100% | – | 0 to 80% | – | – | – | 80 to 100% | – | 0 to 80% | – | 116 to 120 °C
17 | COc1ccnc(C(=O)N[C@H]2COC[C@H](Cc3ccc(Cl)cc3Cl)[C@@H](OC(=O)C(C)C)[C@H](C)OC2=O)c1O [Compound F41] | 80 to 100% | – | – | – | – | – | 80 to 100% | – | 80 to 100% | – | 79 to 82 °C
18 | CCCCCO[C@@H]1[C@@H](Cc2ccc(C)cc2)COC[C@H](NC(=O)c2nccc(OC)c2O)C(=O)O[C@H]1C [Compound F11] | 80 to 100% | – | 0 to 80% | – | – | – | 80 to 100% | – | 80 to 100% | – | 97 to 99 °C
19 | COc1ccnc(C(=O)N[C@H]2COC[C@H](Cc3ccc(Cl)cc3Cl)[C@@H](OCC(C)C)[C@H](C)OC2=O)c1O [Compound F42] | 80 to 100% | – | 80 to 100% | – | – | – | 80 to 100% | – | 80 to 100% | – | 60 to 64 °C
20 | COc1ccnc(C(=O)N[C@H]2COC[C@H](CC3CCCC3)[C@@H](OC(=O)C(C)C)[C@H](C)OC2=O)c1O [Compound F45] | 80 to 100% | – | 0 to 80% | – | – | – | 80 to 100% | – | 80 to 100% | – | 55 to 59 °C
21 | CCCCCO[C@@H]1[C@@H](Cc2cccc3ccccc23)COC[C@H](NC(=O)c2nccc(OC)c2OC(C)=O)C(=O)O[C@H]1C [Compound F52] | 80 to 100% | – | 0 to 80% | – | – | – | 80 to 100% | – | 80 to 100% | – | 85 to 91 °C
22 | CCCCCO[C@@H]1[C@@H](CC2CCCC2)COC[C@H](NC(=O)c2nccc(OC)c2OC(C)=O)C(=O)O[C@H]1C [Compound F79] | 80 to 100% | 80 to 100% | 80 to 100% | 0 to 80% | – | – | 80 to 100% | 80 to 100% | 80 to 100% | 80 to 100% | 46 to 51 °C
23 | COc1ccnc(C(=O)N[C@H]2COC[C@H](CCc3ccccc3)[C@@H](OCC(C)C)[C@H](C)OC2=O)c1O [Compound F4] | 80 to 100% | – | 80 to 100% | – | – | – | 80 to 100% | – | 80 to 100% | – | 117 to 120 °C
